Data: patent US10479803B2, “Bicyclic heteroarylaminoalkyl phenyl derivatives as PI3K inhibitors” (Incyte Corporation, priority 2014, dated 2019)

Legend:
human JAK2 = human JAK2 (Homo sapiens (Human), UniProt O60674); assay: In vitro JAK kinase assay (Example J), JAK2; assay type: biochemical; settings: ratio of IC50s, Assay J at 1 mM ATP
human JAK1 = human JAK1 (Homo sapiens, UniProt P23458); assay: In vitro JAK kinase assay (Example J), JAK1; assay type: biochemical; settings: Assay J at 1 mM ATP

human JAK2, sequence (O60674 828-1132): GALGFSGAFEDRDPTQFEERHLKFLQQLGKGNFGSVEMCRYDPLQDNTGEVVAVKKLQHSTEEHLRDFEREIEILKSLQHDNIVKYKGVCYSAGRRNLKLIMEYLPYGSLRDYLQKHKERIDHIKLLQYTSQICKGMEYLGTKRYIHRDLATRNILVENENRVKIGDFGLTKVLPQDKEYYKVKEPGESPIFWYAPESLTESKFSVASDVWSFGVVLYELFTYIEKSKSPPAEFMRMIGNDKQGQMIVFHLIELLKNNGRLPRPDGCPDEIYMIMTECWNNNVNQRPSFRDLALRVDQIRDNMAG

IC50 (human JAK1) [µM] | SMILES | JAK2/JAK1 (human JAK2)
– | C[C@@H](O)c1nc2cnc3ccsc3c2n1[C@H]1CC[C@H](CC#N)OC1 [#1, ((2R,5S)-5-{2-[(1R)-1-Hydroxyethyl]-1H-imidazo[4,5-d]thieno[3,2-b]pyridin-1-yl}tetrahydro-2H-pyran-2-yl)acetonitrile] | >10
< 0.01 | N#CCC(CN1CCN(C(=O)c2ccc(C#N)cc2F)CC1)n1ccc(-c2ncnc3[nH]ccc23)c1 (stereo not drawn) [Example 6, 4-[(4-{3-cyano-2-[3-(7H-pyrrolo[2,3-d]pyrimidin-4-yl)-1H-pyrrol-1-yl]propyl}piperazin-1-yl)carbonyl]-3-fluorobenzonitrile] | >10
